One block for each molecule: values may come before it. Ends that are not written are not given here.
Legend:
[1] = molecular target: T1, recombinant human CL receptor/RAMP1 (Homo sapiens, UniProt O60894+Q16602); assay: Recombinant receptor functional assay (cAMP after human α-CGRP stimulation); assay type: cell-based; conditions: HEK 293 cells, 0.3 nM human α-CGRP
T1 construct: expressed in transfected cells
Procedure: (§1) RECOMBINANT RECEPTOR: Human CL receptor (Genbank accession number L76380) was subcloned into the expression vector pIREShyg2 (BD Biosciences Clontech) as a 5′NheI and 3′ PmeI fragment. Human RAMP I (Genbank accession number AJ001014) was subcloned into the expression vector pIRESpuro2 (BD Biosciences Clontech) as a 5′NheI and 3′NotI fragment. HEK 293 cells (human embryonic kidney cells; ATCC #CRL-1573) were cultured in DMEM with 4.5 g/L glucose, 1 mM sodium pyruvate and 2 mM glutamine supplemented with 10% fetal bovine serum (FBS), 100 units/mL penicillin and 100 μg/mL streptomycin, and maintained at 37° C. and 95% humidity. Cells were subcultured by treatment with 0.25% trypsin with 0.1% EDTA in HBSS. Stable cell line generation was accomplished by co-transfecting 10 μg of DNA with 30 μg Lipofectamine 2000 (Invitrogen) in 75 cm^2 flasks. CL receptor and RAMP I expression constructs were co-transfected in equal amounts. […]
RECOMBINANT RECEPTOR FUNCTIONAL ASSAY: Cells were plated in complete growth medium at 85,000 cells/well in 96-well poly-D-lysine coated plates (Corning) and cultured for ˜19 h before assay. […] Dose response curves were plotted and IC50 values determined from a 4-parameter logistic fit as defined by the equation y=((a−d)/(1+(x/c)^b)+d, where y=response, x=dose, a=max response, d=min response, c=inflection point and b=slope.

[2] = molecular target: T1, recombinant human CL receptor/RAMP1; assay: Recombinant receptor binding assay (125I-hCGRP); conditions: recombinant human CL receptor/RAMP1 membranes, 10 pM 125I-hCGRP
Procedure: as §1, with “amounts. Twenty-four hours after transfection the cells were diluted and selective medium (growth medium+300 μg/mL hygromycin and 1 μg/mL puromycin) was added the following day. A clonal cell line was generated by single cell deposition utilizing a FACS Vantage SE (Becton Dickinson). Growth medium was adjusted to 150 μg/mL hygromycin and 0.5 μg/mL puromycin for cell propagation.” for “amounts.”

[3] = molecular target: T2, CGRP receptors in SK-N-MC cell membranes (Homo sapiens, UniProt O60894+Q16602); assay: Native receptor binding assay (125I-CGRP, SK-N-MC cell membranes); conditions: 10 pM 125I-CGRP
T2 construct: receptors in SK-N-MC cell membranes; endogenous in cells; host or cells: SK-N-MC cell membranes
T2 sequence (Q16602 23-461): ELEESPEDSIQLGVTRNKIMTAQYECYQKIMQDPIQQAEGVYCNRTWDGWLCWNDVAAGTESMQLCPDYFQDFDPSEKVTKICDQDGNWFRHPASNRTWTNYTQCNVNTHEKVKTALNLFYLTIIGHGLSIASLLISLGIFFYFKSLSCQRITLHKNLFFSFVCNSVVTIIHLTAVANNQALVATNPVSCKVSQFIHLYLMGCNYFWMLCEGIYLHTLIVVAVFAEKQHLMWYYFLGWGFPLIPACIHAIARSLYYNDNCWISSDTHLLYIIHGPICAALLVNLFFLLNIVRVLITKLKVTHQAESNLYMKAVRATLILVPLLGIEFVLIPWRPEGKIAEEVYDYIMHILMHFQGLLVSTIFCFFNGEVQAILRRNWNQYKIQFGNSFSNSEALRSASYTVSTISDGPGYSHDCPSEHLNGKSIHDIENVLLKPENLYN
T2 sequence (O60894 27-148): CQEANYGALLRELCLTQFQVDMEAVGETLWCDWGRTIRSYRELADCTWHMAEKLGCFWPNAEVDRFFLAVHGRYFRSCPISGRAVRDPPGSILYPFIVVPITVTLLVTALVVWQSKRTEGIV
Procedure: NATIVE RECEPTOR BINDING ASSAY: The binding of ^125I-CGRP to receptors in SK-N-MC cell membranes was carried out essentially as described (Edvinsson et al. (2001) Eur. J. Pharmacal. 415, 39-44). Briefly, membranes (25 μg) were incubated in 1 mL of binding buffer [10 mM HEPES, pH 7.4, 5 mM MgCl2 and 0.2% bovine serum albumin (BSA)] containing 10 pM ^125I-CGRP and antagonist. After incubation at room temperature for 3 h, the assay was terminated by filtration through GFB glass fibre filter plates (PerkinElmer) that had been blocked with 0.5% polyethyleneimine for 3 h. The filters were washed three times with ice-cold assay buffer (10 mM HEPES, pH 7.4 and 5 mM MgCl2), then the plates were air dried. Scintillation fluid (50 μL) was added and the radioactivity was counted on a Topeount (Packard Instrument). Data analysis was carried out by using Prism and the Ki was determined by using the Cheng-Prusoff equation (Cheng & Prusoff (1973) Biochem. Pharmacol. 22, 3099-3108).

[4] = tested on: diameter of the middle meningeal artery; conditions: rats, electrical stimulation of the dura mater, prior administration (Williamson et al. 1997); cited from earlier work
facial blood flow [5] = conditions: rat, trigeminal ganglion stimulation (Escott et al. 1995); cited from earlier work
facial blood flow [6] = conditions: marmoset, electrical stimulation of the trigeminal ganglion (Doods et al. 2000); cited from earlier work
[7] = tested on: headache induced by CGRP infusion; conditions: control group (Petersen et al. 2005); cited from earlier work
[8] = clinical trials (Olesen et al. 2004); cited from earlier work

T1 sequence (Q16602 23-461): as the sequence (Q16602 23-461) above
T1 sequence (O60894 27-148): as the sequence (O60894 27-148) above

IC50 [1]: < 1000 nM
Ki [2]: < 1000 nM
Ki [3]: < 1000 nM
Molecule: CC(C)(O)c1cnc2n1Cc1c(cc(Cl)c3[nH]ncc13)C[C@H]2NC(=O)c1ccc2c(c1)CC1(C2)C(=O)Nc2ncccc21 (stereo partly drawn) [Example 4, N-[(7R)-4-chloro-10-(1-hydroxy-1-methylethyl)-3,6,7,12-tetrahydroimidazo[1′,2′:1,7]azepino[3,4-e]indazol-7-yl]-2′-oxo-1,1′,2′,3-tetrahydrospiro[indene-2,3′-pyrrolo[2,3-b]pyridine]-5-carboxamide]

Molecule: CGRP(8-37): a peptide CGRP antagonist; fragment of CGRP that lacks seven N-terminal amino acid residues (VTHRLAGLLSRSGGVVKNNFVPTNVGSKAF; ends and bridges not checked; UniProt P06881 90-119, looked up, fragment)
effect on increased diameter of the middle meningeal artery [4]: blocked
effect on increased facial blood flow (facial blood flow [5]): inhibited

Molecule: NCCCC[C@H](NC(=O)[C@@H](Cc1cc(Br)c(O)c(Br)c1)NC(=O)N1CCC(N2Cc3ccccc3NC2=O)CC1)C(=O)N1CCN(c2ccncc2)CC1 [BIBN4096BS]
effect on increase in facial blood flow (facial blood flow [6]): could be blocked
prevention of headache induced by CGRP infusion [7]: able to prevent headache
treating acute attacks of migraine [8]: effective
